One may read the IC50 as the concentration at which inhibition is half-maximal.

The assay has as its target T1, wildtype HIV-1 protease (Human immunodeficiency virus type 1 group M subtype B, UniProt P04585).
T1 construct: preincubated with the HIV-1 protease (wild type) enzyme in assay buffer; made in house; host or cells: Escherichia coli
Put plainly: Inhibition of microbial expressed HIV protease (Pepcleav). Format: biochemical. Conditions: wild type HIV-1 protease expressed in E. coli, 20 pM enzyme, 400 micromolar peptide substrate, pH 5.5, LC-MS readout; mean of at least two independent experiments. The method, then:
Assay for Inhibition of Microbial Expressed HIV Protease (“Pepcleav”)
Studies of the inhibition of the wildtype HIV-1 protease (which was expressed in Escherichia coli) were carried out with a peptide substrate [Val-Ser-Gln-Asn-(βnaphthyl)Ala-Pro-Ile-Val (SEQ ID NO:1)]. The inhibitor was first preincubated with the HIV-1 protease (wild type) enzyme in assay buffer (50 mM sodium acetate, pH 5.5, 100 mM NaCl, and 0.1% BSA) for 30 minutes at room temperature. Substrate was added to 400 micromolar in a total volume of 20 microliters containing 20 picomolar HIV-1 protease (final) and the reaction was incubated for 1 hour at 30° C. The reaction was quenched with the addition of formic acid and indinavir to 0.012% and 150 nM final concentrations, respectively. The product formation was determined after separation of product and substrate on a Zorbax Eclipse XDB-C18 column connected to an API 4000 mass spectrometer (Applied Biosystems) with multiple reaction monitoring (transitions were 644.5/428.9 and 615.4/422.2 (M1/M3) for product and indinavir respectively). The extent of inhibition of the reaction was determined from the peak area of the products. Analysis of the products, independently synthesized, provided quantitation standards and confirmation of the product composition.

On to `COC(=O)N[C@H](C(=O)Nc1ccccc1CC[C@@H]1CN[C@H](C)[C@@H](CSc2nc3ncccc3[nH]2)O1)C(c1ccccc1)c1ccccc1` [Example 22, methyl N-[(1S)-1-benzhydryl-2-[[2-[2-[(2R,5R,6S)-6-(1H-imidazo[4,5-b]pyridin-2-ylsulfanylmethyl)-5-methyl-morpholin-2-yl]ethyl]phenyl]amino]-2-oxo-ethyl]carbamate], for which the IC50 was determined as 44.4 nM.
To `COC(=O)N[C@H](C(=O)Nc1ccccc1CC[C@@H]1CN[C@H](C)[C@@H](CSc2ncnc3c2ncn3[C@@H]2O[C@H](CO)[C@@H](O)[C@H]2O)O1)C(c1ccccc1)c1ccccc1` [Example 23, methyl N-[(1S)-1-benzhydryl-2-[[2-[2-[(2R,5R,6S)-6-[[9-[(2R,3R,4S,5R)-3,4-dihydroxy-5-(hydroxymethyl)tetrahydrofuran-2-yl]purin-6-yl]sulfanylmethyl]-5-methyl-morpholin-2-yl]ethyl]phenyl]amino]-2-oxo-ethyl]carbamate] belongs 51.9 nM; to `COC(=O)N[C@H](C(=O)Nc1ccccc1CC[C@@H]1CN[C@H](C)[C@@H](CSc2nc[nH]n2)O1)C(c1ccccc1)c1ccccc1` [Example 24, methyl N-[(1S)-1-benzhydryl-2-[[2-[2-[(2R,5R,6S)-5-methyl-6-(1H-1,2,4-triazol-3-ylsulfanylmethyl)morpholin-2-yl]ethyl]phenyl]amino]-2-oxo-ethyl]carbamate], 58.3 nM; to `COC(=O)N[C@H](C(=O)Nc1ccccc1CC[C@@H]1CN[C@H](C)[C@@H](CSc2nc(N)c3cn[nH]c3n2)O1)C(c1ccccc1)c1ccccc1` [Example 25, methyl N-[(1S)-1-[[2-[2-[(2R,5R,6S)-6-[(4-amino-1H-pyrazolo[3,4-d]pyrimidin-6-yl)sulfanylmethyl]-5-methyl-morpholin-2-yl]ethyl]phenyl]carbamoyl]-2,2-diphenyl-ethyl]carbamate], 100 nM.
On to `COC(=O)N[C@H](C(=O)Nc1ccccc1CC[C@@H]1CN[C@H](C)[C@@H](CSc2nnc(CN3CCCC3)o2)O1)C(c1ccccc1)c1ccccc1` [Example 26, methyl N-[(1S)-1-benzhydryl-2-[[2-[2-[(2R,5R,6S)-5-methyl-6-[[5-(pyrrolidin-1-ylmethyl)-1,3,4-oxadiazol-2-yl]sulfanylmethyl]morpholin-2-yl]ethyl]phenyl]amino]-2-oxo-ethyl]carbamate], for which the IC50 came to 124 nM.
To `COC(=O)N[C@H](C(=O)Nc1ccccc1CC[C@@H]1CN[C@H](C)[C@@H](CSc2nc(C)cc(C)c2C#N)O1)C(c1ccccc1)c1ccccc1` [Example 27, methyl N-[(1S)-1-benzhydryl-2-[[2-[2-[(2R,5R,6S)-6-[(3-cyano-4,6-dimethyl-2-pyridyl)sulfanylmethyl]-5-methyl-morpholin-2-yl]ethyl]phenyl]amino]-2-oxo-ethyl]carbamate] belongs 124 nM; to `COC(=O)N[C@H](C(=O)Nc1ccccc1CC[C@@H]1CN[C@H](C)[C@@H](CSc2nnnn2CCN(C)C)O1)C(c1ccccc1)c1ccccc1` [Example 28, methyl N-[(1S)-1-benzhydryl-2-[[2-[2-[(2R,5R,6S)-6-[[1-(2-dimethylaminoethyl)tetrazol-5-yl]sulfanylmethyl]-5-methyl-morpholin-2-yl]ethyl]phenyl]amino]-2-oxo-ethyl]carbamate], 214 nM.
In the case of `COC(=O)N[C@H](C(=O)Nc1ccccc1CC[C@@H]1CN[C@H](C)[C@@H](CSc2ncc[nH]2)O1)C(c1ccccc1)c1ccccc1` [Example 29, methyl N-[(1S)-1-benzhydryl-2-[[2-[2-[(2R,5R,6S)-6-(1H-imidazol-2-ylsulfanylmethyl)-5-methyl-morpholin-2-yl]ethyl]phenyl]amino]-2-oxo-ethyl]carbamate], the IC50 was 235 nM.
For the molecule `COC(=O)N[C@H](C(=O)Nc1ccccc1CC[C@@H]1CN[C@H](COC(C)=O)[C@@H](CSc2nnc(-c3ccncc3)o2)O1)C(c1ccccc1)c1ccccc1` [Example 30, [(2S,3R,6R)-6-[2-(2-{[N-(methoxycarbonyl)-β-phenyl-L-phenylalanyl]amino}phenyl)ethyl]-2-({[5-(pyridin-4-yl)-1,3,4-oxadiazol-2-yl]sulfanyl}methyl)morpholin-3-yl]methyl acetate], the IC50 is 0.0334 nM.
The molecule `COC(=O)N[C@H](C(=O)Nc1ccccc1CC[C@@H]1CN[C@H](CO)[C@@H](CSc2nnc(-c3ccncc3)o2)O1)C(c1ccccc1)c1ccccc1` [Example 31, N-(2-{2-[(2R,5R,6S)-5-(hydroxymethyl)-6-({[5-(pyridin-4-yl)-1,3,4-oxadiazol-2-yl]sulfanyl}methyl)morpholin-2-yl]ethyl}phenyl)-Nα-(methoxycarbonyl)-β-phenyl-L-phenylalaninamide] came in with an IC50 of 0.171 nM.
Molecule `COC(=O)N[C@H](C(=O)Nc1ccccc1CC[C@@H]1CN[C@H](c2ncc[nH]2)[C@@H](CSc2nnc(-c3ccncc3)o2)O1)C(c1ccccc1)c1ccccc1` [Example 32, N-(2-{2-[(2R,5R,6S)-5-(1H-imidazol-2-yl)-6-({[5-(pyridin-4-yl)-1,3,4-oxadiazol-2-yl]sulfanyl}methyl)morpholin-2-yl]ethyl}phenyl)-Nα-(methoxycarbonyl)-β-phenyl-L-phenylalaninamide] displayed an IC50 of 0.65 nM.
With `COC(=O)N[C@H](C(=O)Nc1ccccc1CC[C@@H]1CN[C@H](COCc2ccccc2)[C@@H](CSc2nnc(-c3ccncc3)o2)O1)C(c1ccccc1)c1ccccc1` [Example 33], half-maximal inhibition (IC50) required 0.472 nM.
The same measure for `COC(=O)N[C@H](C(=O)Nc1ccccc1CC[C@@H]1CN[C@H](COC(=O)NCc2ccc(F)cc2)[C@@H](CSc2nnc(-c3ccncc3)o2)O1)C(c1ccccc1)c1ccccc1` [Example 35, N-(2-{2-[(2R,5R,6S)-5-({[(4-fluorobenzyl)carbamoyl]oxy}methyl)-6-({[5-(pyridin-4-yl)-1,3,4-oxadiazol-2-yl]sulfanyl}methyl)morpholin-2-yl]ethyl}phenyl)-Nα-(methoxycarbonyl)-β-phenyl-L-phenylalaninamide]: 0.0304 nM; for `C[C@@H]1O[C@H](CCc2c(F)cccc2NC(=O)[C@@H](N)C(c2ccc(F)cc2)c2ccc(F)cc2)CN[C@@H]1COC(N)=O` [Example 36, N-[2-(2-{(2R,5R,6S)-5-[(carbamoyloxy)methyl]-6-methylmorpholin-2-yl}ethyl)-3-fluorophenyl]-4-fluoro-β-(4-fluorophenyl)-L-phenylalaninamide]: 39 nM.
The same measure for `C[C@@H]1O[C@H](CCc2c(F)cccc2NC(=O)[C@@H](N)C(c2ccc(F)cc2)c2ccc(F)cc2)CN[C@@H]1COC(=O)N[C@@H](C)C(F)(F)F` [Example 37, 4-fluoro-N-[3-fluoro-2-(2-{(2R,5R,6S)-6-methyl-5-[({[(1S)-2,2,2-trifluoro-1-methylethyl]carbamoyl}oxy)methyl]morpholin-2-yl}ethyl)phenyl]-β-(4-fluorophenyl)-L-phenylalaninamide]: 3.1 nM; for `CC[C@@H](NC(=O)OC[C@H]1NC[C@@H](CCc2c(F)cccc2NC(=O)[C@@H](N)C(c2ccc(F)cc2)c2ccc(F)cc2)O[C@H]1C)c1ccc(F)cc1` [Example 38, 4-fluoro-N-[3-fluoro-2-(2-{(2R,5R,6S)-5-[({[(1R)-1-(4-fluorophenyl)propyl]carbamoyl}oxy)methyl]-6-methylmorpholin-2-yl}ethyl)phenyl]-β-(4-fluorophenyl)-L-phenylalaninamide]: 4.4 nM.
Turning to `COC(=O)N[C@H](C(=O)Nc1ccccc1CC[C@@H]1CN[C@H](C)[C@@H](CSc2cc(N3CCN(C)CC3)ncn2)O1)C(c1ccccc1)c1ccccc1` [Example 39], the IC50 is 420 nM. This IC50 lies about 95-fold higher than the previous one.
The same measure for `COC(=O)N[C@H](C(=O)Nc1ccccc1CC[C@@H]1CN[C@H](C)[C@@H](CS(=O)(=O)c2ccc(Cl)cc2)O1)C(c1ccccc1)c1ccccc1` [Example 40, N-(2-{2-[(2R,5R,6S)-6-{[(4-chlorophenyl)sulfonyl]methyl}-5-methylmorpholin-2-yl]ethyl}phenyl)-Nα-(methoxycarbonyl)-β-phenyl-L-phenylalaninamide]: 750 nM; for `COC(=O)N[C@H](C(=O)Nc1ccccc1CC[C@@H]1CN[C@H](C)[C@@H](C[S@@+]([O-])c2ccc(Cl)cc2)O1)C(c1ccccc1)c1ccccc1` [Example 41, N-(2-{2-[(2R,5R,6S)-6-{[(R)-(4-chlorophenyl)sulfinyl]methyl}-5-methylmorpholin-2-yl]ethyl}phenyl)-Nα-(methoxycarbonyl)-β-phenyl-L-phenylalaninamide]: 890 nM; for `COC(=O)N[C@H](C(=O)Nc1ccccc1CC[C@@H]1CN[C@H](COCc2ccccc2)[C@@H](CO)O1)C(c1ccccc1)c1ccccc1` [Example 42, N-(2-{2-[(2R,5R,6S)-5-[(benzyloxy)methyl]-6-(hydroxymethyl)morpholin-2-yl]ethyl}phenyl)-Nα-(methoxycarbonyl)-β-phenyl-L-phenylalaninamide]: 80 nM.
On to `COC(=O)N[C@H](C(=O)Nc1ccccc1CC[C@@H]1CN[C@H](COC(=O)NCC(F)(F)F)[C@@H](CSc2nnc(-c3ccncc3)o2)O1)C(c1ccccc1)c1ccccc1` [Example 43], for which the IC50 was 0.01 nM.

The record behind these values is patent US9834526B2 (MERCK SHARP & DOHME CORP., priority 2013, dated 2017).
